From patent publication US7776572B2, “Method for reducing loss of enzyme activity during storage” (Corning Incorporated, priority 1996, dated 2010)

How the values were obtained:
[1] = test system: ^125I-IgG (goat anti-mouse); experiment: Radiometric determination of IgG binding to surfactant-coated polystyrene microtiter wells; conditions: for Total IgG binding, Non-Sterilized: coated polystyrene wells; for Total IgG binding, Non-Sterilized / Tight IgG binding, Non-Sterilized: not sterilized; for Total IgG binding, Non-Sterilized / Total IgG binding, Sterilized: after three PBS washes; for Total IgG binding, Sterilized / Tight IgG binding, Sterilized: gamma sterilized (1.5 Mrad); for Tight IgG binding, Sterilized / Tight IgG binding, Non-Sterilized: after two hours in PBS-Tween (0.05%)
Description: The hydrophobic surfaces used were flat bottom microtiter plates composed of high binding polystyrene (Corning Costar No. 2581) and medium binding polystyrene (Corning Costar No. 2587). Testing was performed with and without gamma radiation sterilization using cobalt 60 (1.5 Mrad).
The surfactants were applied to the test plates as described in Materials and Methods, followed by sterilization where indicated.
Levels of protein binding were determined using a radiolabeled protein, namely, ^125I-IgG (goat anti-mouse) purchased from DuPont/NEN. Unlabeled IgG in sodium carbonate buffer pH 9.2 was spiked with ^125I-IgG so that the final concentration of labeled IgG and cold IgG in the test solution was 10 μg/mL.
Aliquots of 0.1 milliliters of the protein solution were placed in quadruplicate in the wells of 8-well strips removed from the test microtiter plates. The wells were incubated overnight at 4° C. with shaking. The supernatants were removed from the wells, followed by three washes with 0.2 mL of PBS. The wells were then dried and individually counted to determine “total” IgG binding. After determining “total” binding, the wells were incubated for two hours in 0.2 mL of PBS-Tween (0.05%) at room temperature with shaking. The supernatants were removed from the wells followed by three washes with 0.2 mL of PBS. The wells were dried and individually counted to determine “tight” IgG binding.
Untreated high binding and medium binding plates were used as controls. A comparative experiment was also performed in which a BSA protein coating was used in place of a surfactant coating. The BSA was preabsorbed onto the walls of the wells and then washed to remove excess material. Testing was then performed using the radiolabeled IgG solution as described above.
Radiolabel measurements were performed in a double blind study at BioMolecular Assays (Woburn, Mass.). IgG binding values per microwell were converted to ng/cm^2 values using a surface area of 0.94 cm^2 for a 0.1 mL volume.

bound protein = experiment: Colloidal gold staining of bound protein after MDCK culture in media containing 5% FBS, visual; conditions: colloidal gold after cell culture, visual observation
In short: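 Polystyrene wells coated with non-ionic surfactants, gamma-sterilized at 1.5 Mrad, seeded with 5.6×10^4 MDCK cells per well in medium with 5% FBS and cultured 2 days at 37 °C, 5% CO2. After fixing, bound protein detected by colloidal gold staining; visual assessment only.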

IgG [2] = experiment: IgG/Au staining of coated polystyrene, type of endgroups
Description: Except where indicated, the non-ionic surfactants were applied to the hydrophobic surfaces being tested as a 0.1% (weight/volume) solution in isopropanol. A sufficient amount of coating solution was used to cover the surface being testing with a thin layer of the solution (e.g., 25 μl of the solution per well for a standard 24-well plate). In some cases, the solution was applied to surface by spraying; in others, it was poured onto the surface (into the well). Except where indicated, coated samples were either dried at 70° C. for 30 minutes in an air circulated oven or dried at room temperature overnight to evaporate the isopropanol. Protein binding was determined in some examples using a colloidal gold straining procedure. In accordance with this procedure, colloidal gold becomes electrostatically attached to bound protein and is detected by measuring absorbance at 550 nanometers. Bio-Rad Laboratories' Colloidal Gold Total Protein Stain was used for this purpose, with absorbance being measured with a Cambridge Technologies Plate Reader (No. 7520). The non-ionic surfactants listed in Table 6 were tested for their ability to produce a low binding surface using the techniques described in Materials and Methods. Polystyrene was used as the hydrophobic test surface and IgG/Au staining was used as the readout.

MDCK cells = experiment: Cytotoxicity of extracts of coated plates; format: cell-based; conditions: media extract of coated plates (37° C., 48 hours), MDCK 72 hours, Gram Crystal Violet
Description: Cytotoxicity experiments were performed using MDCK cells. The non-ionic surfactants tested were Pluronic L-121, L-122, and P-123; Span 80 and 85; and Brij 30, 72 and 93. These molecules were coated onto 24-well plates (Corning Costar #9447) from 0.1% (w/v) in isopropanol. Untreated polystyrene and normal tissue culture treated polystyrene (Corning Costar #25820) 24-well plates were used as controls. All plates were incubated at 37° C. for 48 hours with 2 ml/well of complete DMEM media containing 10% Fetal Bovine Serum (FBS). This incubation was performed in order to extract any potentially toxic compounds from the coated surface into the cell growth serum. The FBS solutions were then transferred to tissue culture treated polystyrene and each well was inoculated with ≈2×10^4 cells/well of MDCK cells, and then incubated at 37° C. for 72 hours in a 5% CO2 atmosphere. Cells were then stained with Gram Crystal Violet.

BSA = experiment: Polymer blends molded into petri dishes, BSA binding by colloidal gold; conditions: for BSA or FBS protein binding: blend in polypropylene or EVA
Fetal Bovine Serum (FBS) = experiment: Polymer blends molded into petri dishes, FBS protein binding by colloidal gold
IgG [3] = experiment: Coating durability using water washes, IgG binding by colloidal gold; conditions: for Absorbance (550 nm) Initial: coated polystyrene, no water wash; for Absorbance (550 nm) 1 Time 1 hr 23° C. / Absorbance (550 nm) 1 Time 24 hr 23° C. / Absorbance (550 nm) 1 Time 24 hr 37° C. / Absorbance (550 nm) 1 Time 24 hr 70° C.: dI H2O wash 1 time; for Absorbance (550 nm) 6 Times 30 min each 23° C.: dI H2O wash 6 times
In short: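 24-well polystyrene plates coated with surfactants; durability tested by water washes on a rocker. IgG incubated 30 minutes at 23° C. with rocking, then rinsed 3× with water.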

[4] = blended at 1% into ethylene vinyl acetate
[5] = blended at 5% into ethylene vinyl acetate, silver enhancer
[6] = blended at 5% into polypropylene, silver enhancer

Compound	Total IgG binding, Non-Sterilized [1] [ng/cm^2]	Total IgG binding, Sterilized [1] [ng/cm^2]	Tight IgG binding, Sterilized [1] [ng/cm^2]	Tight IgG binding, Non-Sterilized [1] [ng/cm^2]	Visual Color Upon Protein Staining (bound protein)	Bound Protein Absorbance at 550 nm (IgG [2])	cell growth and morphology (MDCK cells)	BSA or FBS protein binding (BSA)	Bound Protein Absorbance (550 nm) BSA (BSA; [4])	Bound Protein Absorbance (550 nm) BSA (BSA; [5])	Bound Protein Absorbance (550 nm) BSA (BSA; [6])	Bound Protein Absorbance (550 nm) FBS (Fetal Bovine Serum (FBS); [4])	Bound Protein Absorbance (550 nm) FBS (Fetal Bovine Serum (FBS); [5])	Bound Protein Absorbance (550 nm) FBS (Fetal Bovine Serum (FBS); [6])	Absorbance (550 nm) Initial (IgG [3])	Absorbance (550 nm) 1 Time 1 hr 23° C. (IgG [3])	Absorbance (550 nm) 1 Time 24 hr 23° C. (IgG [3])	Absorbance (550 nm) 1 Time 24 hr 37° C. (IgG [3])	Absorbance (550 nm) 1 Time 24 hr 70° C. (IgG [3])	Absorbance (550 nm) 6 Times 30 min each 23° C. (IgG [3])	other results
CCCCCCCC/C=C\CCCCCCCCOCCOCCO [PEO(2) OLEYL ETHER]	7	22	4	5	None	0.00	confluent cell growth with normal cell morphology	no detectable	0.000	0.000	0.000	0.291	0.000	0.000	–	–	–	–	–	–	Bound Protein Absorbance (550 nm) BSA (BSA; blended at 5% into polystyrene): 0.007; Bound Protein Absorbance (550 nm) FBS (Fetal Bovine Serum (FBS); blended at 5% into polystyrene): 0.015
CCCCCCCCCCCCOCCOCCOCCOCCO [PEO(4) LAURYL ETHER]	2	10	4	2	None	–	confluent cell growth with normal cell morphology	–	–	–	–	–	–	–	–	–	–	–	–	–	–
PEO(4) SORBITOL MONO-STEARATE	37	130	80	18	None	–	–	–	–	–	0.016	–	–	0.057	0.00	0.00	0.02	0.10	0.10	0.10	–
PEO(20) SORBITOL TRI-STEARATE	5	7	4	2	None	0.00	–	–	–	–	–	–	–	–	0.00	0.00	0.02	0.10	0.10	0.10	–
SORBITOL MONO-OLEATE	31	33	5	7	–	0.00	confluent cell growth with normal cell morphology	no detectable	0.147	0.000	0.000	0.371	0.000	0.000	0.00	0.00	0.00	0.00	0.00	0.00	–
